According to US7906488B2, “Sphingolipids in treatment and prevention of steatosis and of steatosis or of hepatotoxicity and its sequelae” (Nederlandse Organisatie Voor …, priority 2004, dated 2011):

Tests used:
APOE3*Leiden (E3L) mice = test: High fat high cholesterol diet feeding for 16 weeks (Example 1); type: in vivo
Procedure: Forty-five female heterozygous APOE3*Leiden […]) mice were fed a high fat and high cholesterol diet for four weeks (week -4 to 0). The mice were housed during the experiment in clean-conventional animal rooms (relative humidity 50-60%, temperature 21° C., light cycle 6 am to 6 pm). Mice were supplied with food and acidified tap water ad libitum. At week 0, the mice were randomized on the basis of plasma total triglyceride and cholesterol levels into a control group of fifteen mice and two treatment groups of fifteen mice. The groups were: • 1. high fat, high cholesterol diet only • 2. high fat, high cholesterol diet plus 0.7% (w/w) phytosphingosine • 3. high fat, 'high' cholesterol diet with a reduced cholesterol content, resulting in about the same plasma cholesterol level as was obtained in group 2. The treatment was continued for 16 weeks. During the treatment period, tail blood samples were obtained at week 0, 2, 4, 8, 12, and 16 to measure plasma cholesterol and triglyceride levels and to determine plasma lipoprotein composition. After sixteen weeks, mice were autopsied, liver weight was determined. Body weight and food consumption were determined every four weeks Dietary ingredients were provided by Hope Farms (Woerden, the Netherlands). For group 1 (high cholesterol), the hypercholesterolemic Western-type diet (W-diet) described by Nishina et al (J. Lipid Res. 1990; 31:859) was supplemented with cholesterol (0.5% w/w, final concentration) and with sodium cholate (0.05% w/w, final concentration). This powdered Western-type diet was mixed with 2% agar and freeze-dried as pellets. The diet for group 2 (treatment group) was prepared by the addition of 0.7% (w/w) phytosphingosine to the same powdered Western-type diet (i.e. also supplemented with cholesterol (0.5% w/w, final concentration) and sodium cholate (0.05% w/w, final concentration)). The supplemented diet mixture was mixed with 2% agar and freeze-dried as pellets. The diet W for group 3 (low cholesterol) contained 0.1% cholesterol, and 0.05% sodium cholate (w/w, final concentration). This powdered Western-type diet was mixed with 2% agar and freeze-dried as pellets. The diets were prepared every eight weeks, and stored in the dark at -20° C. Food was given ad libitum. Total cholesterol was measured using the kit Chol R1 from Roche. Total triglycerides were measured using the kit Triglycerides GPO-PAP from Roche. ALAT was measured by dry chemistry on a Reflotron (Roche).

APOE*3Leiden mice = test: Hepatic VLDL-TG production, apoB production and VLDL composition (Triton WR1339 method); type: in vivo; settings: 1% PS diet
Procedure: Plasma parameters: Tail blood samples were collected in EDTA-coated cups, or in paraoxon-coated capillaries to prevent lipolysis as described in Zambon et al. 1993 (Zambon et al. 1993. J. Lipid Res. 34:1021-1028). Plasma lipid parameters were determined using commercial kits for total cholesterol (C) Chol R1 from Roche Diagnostics, Mannheim, Germany), non-esterified free fatty acids (FFA) (NEFA-C; Wako chemicals, Neuss, Germany), Total triglycerides (TG) (Triglyceride GPO-Trinder; Sigma, St. Louis, Mo.), β-hydroxybutyrate (β-HB; Sigma) and ALAT (Reflotron GPT; Roche). Serum amyloid A (SAA) was measured by ELISA (Biosource, Nivelles, Belgium) and fibrinogen by sandwich ELISA, as described in Koopman et al., 2005 (Koopman et al. 2005. Fibrinol Proteol 11:19). For lipoproteins fractionation, groupwise-pooled plasma was size-fractionated by fast protein liquid chromatography (FPLC) on a Superose 6 column (Äkta; Amersham Pharmacia Biotech, Uppsala, Sweden). Fractions were assayed for total C and TG as described. Hepatic VLDL-TG production: The rate of hepatic VLDL-TG production, de novo apoB secretion, and VLDL composition were determined in overnight-fasted mice. Mice were anaesthetized with vetranquil/fentanyl/midazolam i.p., and injected i.v. with 0.1 ml PBS containing 100 μCi Tran^35S-label™ (ICN Biomedicals, Irvine, Calif.) to measure the de novo apoB synthesis. After 30 min, the animals received a Triton WR1339 injection (Tyloxapol, Sigma; 500 mg/kg body weight in 100 μl saline) to prevent systemic lipolysis of newly-secreted hepatic VLDL-TG (Aalto-Setala et al. 1992. J. Clin. Invest 90:1889-1900.27) Blood samples were drawn at 0, 15, 30, 60, and 90 min after Triton WR1339 injection and plasma TG concentrations were determined. After 90 min, the animals were sacrificed and blood was collected by retro-orbital bleeding for isolation of VLDL. VLDL composition: VLDL particles (d<1.019) were separated from other lipoproteins in plasma by density gradient ultra-centrifugation, as described in Jong et al., 1996 (Jong et al. 1996. Arterioscler. Thromb. Vasc. Biol. 16:934-940). Protein content of the VLDL fraction was determined by Lowry's assay (Lowry et al., 1951. J. Biol. Chem. 193:265-275), and TG and total C were determined as described above. Phospholipids and free cholesterol were determined using standard commercial kits (Wako Chemicals, Neuss, Germany). The ^35S-apoB content of VLDL was measured after selective precipitation of apoB with isopropanol as described elsewhere (Li et al. 1996 J. Lipid Res. 37:210-220; Pietzsch et al. 1995. Biochim. Biophys. Acta 1254:77-88). In vivo clearance of VLDL-like TG-rich particles: To determine whether 1% PS accelerates the clearance of TG-rich lipoproteins from plasma, we used radiolabeled emulsion particles as a tool. VLDL-like emulsion particles containing 200 μCi of [^3H]triolein and 20 μCi of [^14C]cholesteryl oleate were prepared and characterized as described in Rensen et al. 1997 (Rensen et al., 1997. J. Lipid Res. 38:1070-1084). Fed mice were anaesthetized as described above and laparotomy was performed. […] After taking the last liver and blood sample, the remainder of the liver, heart, spleen, hind limb muscle, and gonadal, perirenal and intestinal white adipose tissues were harvested. Lipids were extracted overnight at 60° C. in 500 μL of Solvable™, and radioactivity was counted as described in Rensen et al., 1997 (supra). RNA isolation and RT-PCR: Livers from 4 h-fasted mice fed 1% PS-containing diet or control Western-type diet for 5 weeks were removed immediately after sacrifice, flushed with cold 0.9% NaCl and snap frozen in liquid nitrogen. Total RNA was isolated as described by Chomczynski and Sacchi (Chomczynski, P. and Sacchi, N. 1987. Anal. Biochem. 162:156-159) by use of RNA-Bee™ (Campro Scientific, Berlin, Germany). cDNA synthesis was performed according to Bloks et al (Bloks et al., 2001. J. Lipid Res. 42:41-50). […]

[1] = week 16, 0.7% (w/w) phytosphingosine in high fat, high cholesterol diet
[2] = week 16, 0.7% phytosphingosine, p<0.001

CCCCCCCCCCCCCC[C@@H](O)[C@@H](O)[C@@H](N)CO [PS, phytosphingosine]
Body weight and food intake between the three groups (APOE3*Leiden (E3L) mice; 0.7% phytosphingosine, 16 weeks): did not differ | Final mean body weight (APOE3*Leiden (E3L) mice; [1]): 22.1 gram | Final mean liver weight (APOE3*Leiden (E3L) mice; [1]): 1.34 gram | Final mean plasma ALAT values (APOE3*Leiden (E3L) mice; [1]): 82 U/L | ALAT compared with high cholesterol group (APOE3*Leiden (E3L) mice; [2]): significantly lower | Liver weight compared with high cholesterol group 1 (APOE3*Leiden (E3L) mice; [2]): significantly lower | VLDL particle composition: phospholipid (APOE*3Leiden mice; 5 weeks): 7.57 ± 1.13 μmol/mg VLDL protein | VLDL particle composition: total cholesterol (APOE*3Leiden mice; 5 weeks): 11.94 ± 2.16 μmol/mg VLDL protein | VLDL particle composition: triglycerides (APOE*3Leiden mice; 5 weeks): 36.93 ± 7.17 μmol/mg VLDL protein | VLDL total cholesterol, % Δ vs control (APOE*3Leiden mice; 5 weeks): −51% | apoB production rate, % Δ vs control (APOE*3Leiden mice; 5 weeks): did not differ and n.s. | VLDL-TG production rate (APOE*3Leiden mice; 5 weeks, overnight-fasted): 3.63 ± 0.52 μmol TG/h | apoB production rate (APOE*3Leiden mice; 5 weeks, overnight-fasted): 13.47 ± 2.45 ×10^4 dpm/ml/h | Decrease of total C in VLDL particles vs control (APOE*3Leiden mice; p<0.05): 51%
